# Assay results taken from PubChem BioAssay (NCI).
#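 GI50: concentration for 50% inhibition of growth. TGI is the concentration that stops growth completely.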
# What was measured:
# Assay in all cases: growth of human tumour cells (NCI), 384-well format
# NCI-H460 NSCLC = tested on: NCI-H460 NSCLC
# OVCAR-5 ovarian = tested on: OVCAR-5 ovarian
# UO-31 renal = tested on: UO-31 renal
# OVCAR-8 ovarian = tested on: OVCAR-8 ovarian
# PC-3 prostate = tested on: PC-3 prostate
# DU-145 prostate = tested on: DU-145 prostate
# CAKI-1 renal = tested on: CAKI-1 renal
# MDA-MB-231 breast = tested on: MDA-MB-231 breast
# TK-10 renal = tested on: TK-10 renal
# HCC-2998 colon = tested on: HCC-2998 colon
# A549 NSCLC = tested on: A549 NSCLC
# ACHN renal = tested on: ACHN renal
# SF-268 CNS = tested on: SF-268 CNS
# A498 renal = tested on: A498 renal
# T-47D breast = tested on: T-47D breast
# RXF 393 renal = tested on: RXF 393 renal
# IGROV1 ovarian = tested on: IGROV1 ovarian
# MDA-MB-435 melanoma = tested on: MDA-MB-435 melanoma
# SN12C renal = tested on: SN12C renal
# NCI-H322M lung = tested on: NCI-H322M lung
# SF-539 CNS = tested on: SF-539 CNS
# MALME-3M melanoma = tested on: MALME-3M melanoma
# SW-620 colon = tested on: SW-620 colon
# HT29 colon = tested on: HT29 colon
# BT-549 breast = tested on: BT-549 breast
# NCI/ADR-RES ovarian = tested on: NCI/ADR-RES ovarian
# KM12 colon = tested on: KM12 colon
# K-562 leukemia = tested on: K-562 leukemia
# MDA-MB-468 breast = tested on: MDA-MB-468 breast
# CCRF-CEM leukemia = tested on: CCRF-CEM leukemia
# OVCAR-4 ovarian = tested on: OVCAR-4 ovarian
# HS 578T breast = tested on: HS 578T breast
# HL-60(TB) leukemia = tested on: HL-60(TB) leukemia
# M14 melanoma = tested on: M14 melanoma
# 786-0 renal = tested on: 786-0 renal
# SK-MEL-5 melanoma = tested on: SK-MEL-5 melanoma
# U251 glioblastoma = tested on: U251 glioblastoma
# UACC-62 melanoma = tested on: UACC-62 melanoma
# OVCAR-3 ovarian = tested on: OVCAR-3 ovarian
# HOP-62 NSCLC = tested on: HOP-62 NSCLC
# EKVX NSCLC = tested on: EKVX NSCLC
# UACC-257 melanoma = tested on: UACC-257 melanoma
# SNB-19 CNS = tested on: SNB-19 CNS
# NCI-H226 lung = tested on: NCI-H226 lung
# LOX IMVI melanoma = tested on: LOX IMVI melanoma
# SK-MEL-28 melanoma = tested on: SK-MEL-28 melanoma
# COLO 205 colon = tested on: COLO 205 colon
# SNB-75 CNS = tested on: SNB-75 CNS
# RPMI-8226 leukemia = tested on: RPMI-8226 leukemia
# SK-OV-3 ovarian = tested on: SK-OV-3 ovarian
# HCT-15 colon = tested on: HCT-15 colon
# SR leukemia = tested on: SR leukemia
# NCI-H522 lung = tested on: NCI-H522 lung
# SF-295 CNS = tested on: SF-295 CNS
# MCF7 breast = tested on: MCF7 breast
# NCI-H23 lung = tested on: NCI-H23 lung
# HOP-92 NSCLC = tested on: HOP-92 NSCLC
# MOLT-4 leukemia = tested on: MOLT-4 leukemia
smiles,measurement,setting,value
O=C(Nc1cccc(Nc2ncc(Br)c(NCCc3cnc[nH]3)n2)c1)N1CCCC1,GI50,NCI-H460 NSCLC,2960 nM
same,TGI,NCI-H460 NSCLC,8.71 µM
same,GI50,OVCAR-5 ovarian,4.3 µM
same,TGI,OVCAR-5 ovarian,24.9 µM
same,GI50,UO-31 renal,26.6 µM
same,TGI,UO-31 renal,> 100 µM
same,GI50,OVCAR-8 ovarian,5.61 µM
same,TGI,OVCAR-8 ovarian,18.9 µM
same,GI50,PC-3 prostate,4.38 µM
same,TGI,PC-3 prostate,18.4 µM
same,GI50,DU-145 prostate,5.13 µM
same,TGI,DU-145 prostate,19.3 µM
same,GI50,CAKI-1 renal,3.62 µM
same,TGI,CAKI-1 renal,19.7 µM
same,GI50,MDA-MB-231 breast,2400 nM
same,TGI,MDA-MB-231 breast,12.7 µM
same,GI50,TK-10 renal,7.86 µM
same,TGI,TK-10 renal,23.8 µM
same,GI50,HCC-2998 colon,6.06 µM
same,TGI,HCC-2998 colon,19 µM
same,GI50,A549 NSCLC,6.32 µM
same,TGI,A549 NSCLC,> 100 µM
same,GI50,ACHN renal,12.8 µM
same,TGI,ACHN renal,59.5 µM
same,GI50,SF-268 CNS,1920 nM
same,TGI,SF-268 CNS,10.2 µM
same,GI50,A498 renal,4.58 µM
same,TGI,A498 renal,60.7 µM
same,GI50,T-47D breast,4.37 µM
same,TGI,T-47D breast,17.2 µM
same,GI50,RXF 393 renal,6.04 µM
same,TGI,RXF 393 renal,20.9 µM
same,GI50,IGROV1 ovarian,6.48 µM
same,TGI,IGROV1 ovarian,21.1 µM
same,GI50,MDA-MB-435 melanoma,2960 nM
same,TGI,MDA-MB-435 melanoma,16.5 µM
same,GI50,SN12C renal,1480 nM
same,TGI,SN12C renal,10.6 µM
same,GI50,NCI-H322M lung,10.3 µM
same,TGI,NCI-H322M lung,22.3 µM
same,GI50,SF-539 CNS,955 nM
same,TGI,SF-539 CNS,4.06 µM
same,GI50,MALME-3M melanoma,4.16 µM
same,TGI,MALME-3M melanoma,17.9 µM
same,GI50,SW-620 colon,1600 nM
same,TGI,SW-620 colon,5.1 µM
same,GI50,HT29 colon,4.1 µM
same,TGI,HT29 colon,18.5 µM
same,GI50,BT-549 breast,1570 nM
same,TGI,BT-549 breast,5.23 µM
same,GI50,NCI/ADR-RES ovarian,> 100 µM
same,TGI,NCI/ADR-RES ovarian,> 100 µM
same,GI50,KM12 colon,684 nM
same,TGI,KM12 colon,10.6 µM
same,GI50,K-562 leukemia,2050 nM
same,TGI,K-562 leukemia,10.5 µM
same,GI50,MDA-MB-468 breast,283 nM
same,TGI,MDA-MB-468 breast,631 nM
same,GI50,CCRF-CEM leukemia,190 nM
same,TGI,CCRF-CEM leukemia,377 nM
same,GI50,OVCAR-4 ovarian,1130 nM
same,TGI,OVCAR-4 ovarian,10.4 µM
same,GI50,HS 578T breast,1440 nM
same,TGI,HS 578T breast,3.59 µM
same,GI50,HL-60(TB) leukemia,399 nM
same,TGI,HL-60(TB) leukemia,1940 nM
same,GI50,M14 melanoma,3.02 µM
same,TGI,M14 melanoma,12.9 µM
same,GI50,786-0 renal,5.36 µM
same,TGI,786-0 renal,19.5 µM
same,GI50,SK-MEL-5 melanoma,3.58 µM
same,TGI,SK-MEL-5 melanoma,14.6 µM
same,GI50,U251 glioblastoma,9.49 µM
same,TGI,U251 glioblastoma,79.1 µM
same,GI50,UACC-62 melanoma,1690 nM
same,TGI,UACC-62 melanoma,14.2 µM
same,GI50,OVCAR-3 ovarian,2720 nM
same,TGI,OVCAR-3 ovarian,17.3 µM
same,GI50,HOP-62 NSCLC,2780 nM
same,TGI,HOP-62 NSCLC,12.4 µM
same,GI50,EKVX NSCLC,6.65 µM
same,TGI,EKVX NSCLC,27.3 µM
same,GI50,UACC-257 melanoma,10.5 µM
same,TGI,UACC-257 melanoma,22.4 µM
same,GI50,SNB-19 CNS,8.32 µM
same,TGI,SNB-19 CNS,46.8 µM
same,GI50,NCI-H226 lung,873 nM
same,TGI,NCI-H226 lung,4.74 µM
same,GI50,LOX IMVI melanoma,1180 nM
same,TGI,LOX IMVI melanoma,2800 nM
same,GI50,SK-MEL-28 melanoma,5.06 µM
same,TGI,SK-MEL-28 melanoma,18.7 µM
same,GI50,COLO 205 colon,273 nM
same,TGI,COLO 205 colon,886 nM
same,GI50,SNB-75 CNS,2000 nM
same,TGI,SNB-75 CNS,8.78 µM
same,GI50,RPMI-8226 leukemia,1450 nM
same,TGI,RPMI-8226 leukemia,2900 nM
same,GI50,SK-OV-3 ovarian,4.21 µM
same,TGI,SK-OV-3 ovarian,18.8 µM
same,GI50,HCT-15 colon,11.4 µM
same,TGI,HCT-15 colon,25.6 µM
same,GI50,SR leukemia,180 nM
same,TGI,SR leukemia,349 nM
same,GI50,NCI-H522 lung,1080 nM
same,TGI,NCI-H522 lung,4.86 µM
same,GI50,SF-295 CNS,3.77 µM
same,TGI,SF-295 CNS,14.5 µM
same,GI50,MCF7 breast,3.67 µM
same,TGI,MCF7 breast,19.9 µM
same,GI50,NCI-H23 lung,2310 nM
same,TGI,NCI-H23 lung,10.7 µM
same,GI50,HOP-92 NSCLC,1600 nM
same,TGI,HOP-92 NSCLC,6.13 µM
same,GI50,MOLT-4 leukemia,202 nM
same,TGI,MOLT-4 leukemia,403 nM
